Experimental data reported in PubChem BioAssay AID258 (DTP/NCI, 2004).
Where “and” joins values, the source holds several entries; their conditions need not be identical. Equal values may be shown once. Toxic doses and inconclusive results are not listed.

Tested on: CD2F1 mice, L1210 leukemia sc, survival T/C
Assay: NCI In Vivo Anticancer Drug Screen. Data for tumor model L1210 Leukemia (subcutaneous) in CD2F1 (CDF1) mice
Details: endpoint: median survival time, higher = longer survival
Procedure, shortened: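 Antitumor activity is scored in tumor-bearing mice by comparing survival or tumor size of treated animals against vehicle-treated controls, reported as T/C.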

O=NN(CCCl)C(=O)NC1CCCCC1
T/C (dose: 0.5 mg/kg/injection, schedule: Q01DX009 (ip), vehicle: saline + alcohol): 98 % of control
T/C (dose: 0.5 mg/kg/injection, schedule: Q01DX009 (sc), vehicle: saline + alcohol): 101 % of control and 106 % of control
T/C (dose: 1.0 mg/kg/injection, schedule: Q01DX009 (ip), vehicle: saline + alcohol): 101 % of control
T/C (dose: 1.0 mg/kg/injection, schedule: Q01DX009 (sc), vehicle: saline + alcohol): 105 % of control and 114 % of control
T/C (dose: 2.0 mg/kg/injection, schedule: Q01DX009 (sc), vehicle: saline + alcohol): 119 % of control
T/C (dose: 3.0 mg/kg/injection, schedule: Q01DX Z (iv), vehicle: carboxymethylcellulose (CMC)): 105 % of control and 112 % of control
T/C (dose: 3.0 mg/kg/injection, schedule: Q01DX Z (oral), vehicle: carboxymethylcellulose (CMC)): 162 % of control
T/C (dose: 3.0 mg/kg/injection, schedule: Q01DX Z (sc), vehicle: carboxymethylcellulose (CMC)): 118 % of control
T/C (dose: 4.0 mg/kg/injection, schedule: Q01DX009 (ip), vehicle: saline + alcohol): 178 % of control and 186 % of control
T/C (dose: 5.0 mg/kg/injection, schedule: Q01DX Z (ip), vehicle: carboxymethylcellulose (CMC)): 177 % of control and 181 % of control
T/C (dose: 5.0 mg/kg/injection, schedule: Q01DX Z (iv), vehicle: carboxymethylcellulose (CMC)): 294 % of control
T/C (dose: 5.0 mg/kg/injection, schedule: Q01DX Z (oral), vehicle: carboxymethylcellulose (CMC)): 493 % of control
T/C (dose: 5.0 mg/kg/injection, schedule: Q01DX Z (sc), vehicle: carboxymethylcellulose (CMC)): 112 % of control and 155 % of control and 287 % of control
T/C (dose: 5.36 mg/kg/injection, schedule: Q01DX009 (sc), vehicle: saline + alcohol): 323 % of control
T/C (dose: 8.0 mg/kg/injection, schedule: Q01DX009 (ip), vehicle: saline + alcohol): 234 % of control and 261 % of control
T/C (dose: 8.4 mg/kg/injection, schedule: Q01DX Z (ip), vehicle: carboxymethylcellulose (CMC)): 381 % of control and 383 % of control
T/C (dose: 8.4 mg/kg/injection, schedule: Q01DX Z (iv), vehicle: carboxymethylcellulose (CMC)): 225 % of control and 261 % of control
T/C (dose: 8.4 mg/kg/injection, schedule: Q01DX Z (oral), vehicle: carboxymethylcellulose (CMC)): 412 % of control
T/C (dose: 8.4 mg/kg/injection, schedule: Q01DX Z (sc), vehicle: carboxymethylcellulose (CMC)): 106 % of control and 237 % of control and 300 % of control
T/C (dose: 10.7 mg/kg/injection, schedule: Q01DX009 (ip), vehicle: saline + alcohol): 337 % of control
T/C (dose: 10.7 mg/kg/injection, schedule: Q01DX009 (sc), vehicle: saline + alcohol): 378 % of control
T/C (dose: 12.0 mg/kg/injection, schedule: Q01DX009 (sc), vehicle: saline + alcohol): 325 % of control
T/C (dose: 14.0 mg/kg/injection, schedule: Q01DX Z (ip), vehicle: carboxymethylcellulose (CMC)): 255 % of control and 387 % of control
T/C (dose: 14.0 mg/kg/injection, schedule: Q01DX Z (iv), vehicle: carboxymethylcellulose (CMC)): 183 % of control and 381 % of control
T/C (dose: 14.0 mg/kg/injection, schedule: Q01DX Z (oral), vehicle: carboxymethylcellulose (CMC)): 255 % of control and 300 % of control
T/C (dose: 14.0 mg/kg/injection, schedule: Q07DX Z (sc), vehicle: carboxymethylcellulose (CMC)): 112 % of control
T/C (dose: 15.0 mg/kg/injection, schedule: Q01DX009 (ip), vehicle: Klucel (hydroxypropylcellulose) (HPC)): 220 % of control
T/C (dose: 16.0 mg/kg/injection, schedule: Q01DX009 (ip), vehicle: saline + alcohol): 306 % of control and 340 % of control
T/C (dose: 16.0 mg/kg/injection, schedule: Q01DX009 (sc), vehicle: saline + alcohol): 271 % of control and 284 % of control and 348 % of control
T/C (dose: 23.0 mg/kg/injection, schedule: Q01DX Z (ip), vehicle: carboxymethylcellulose (CMC)): 177 % of control and 268 % of control
T/C (dose: 23.0 mg/kg/injection, schedule: Q01DX Z (iv), vehicle: carboxymethylcellulose (CMC)): 155 % of control and 368 % of control
T/C (dose: 23.0 mg/kg/injection, schedule: Q01DX Z (oral), vehicle: carboxymethylcellulose (CMC)): 212 % of control and 222 % of control
T/C (dose: 23.0 mg/kg/injection, schedule: Q01DX Z (sc), vehicle: carboxymethylcellulose (CMC)): 156 % of control and 211 % of control and 268 % of control
T/C (dose: 23.0 mg/kg/injection, schedule: Q07DX Z (sc), vehicle: carboxymethylcellulose (CMC)): 118 % of control
T/C (dose: 24.0 mg/kg/injection, schedule: Q01DX009 (ip), vehicle: saline + alcohol): 184 % of control
T/C (dose: 24.0 mg/kg/injection, schedule: Q01DX009 (sc), vehicle: saline + alcohol): 219 % of control
T/C (dose: 30.0 mg/kg/injection, schedule: Q01DX009 (ip), vehicle: Klucel (hydroxypropylcellulose) (HPC)): 275 % of control
T/C (dose: 32.0 mg/kg/injection, schedule: Q01DX009 (sc), vehicle: saline + alcohol): 173 % of control
T/C (dose: 39.0 mg/kg/injection, schedule: Q01DX Z (oral), vehicle: carboxymethylcellulose (CMC)): 161 % of control
T/C (dose: 39.0 mg/kg/injection, schedule: Q01DX Z (sc), vehicle: carboxymethylcellulose (CMC)): 312 % of control
T/C (dose: 64.0 mg/kg/injection, schedule: Q01DX009 (ip), vehicle: saline + alcohol): 95 % of control
T/C (dose: 64.0 mg/kg/injection, schedule: Q01DX009 (sc), vehicle: saline + alcohol): 107 % of control and 120 % of control
T/C (dose: 65.0 mg/kg/injection, schedule: Q01DX001 (sc), vehicle: carboxymethylcellulose (CMC)): 200 % of control
T/C (dose: 65.0 mg/kg/injection, schedule: Q01DX Z (sc), vehicle: carboxymethylcellulose (CMC)): 237 % of control
T/C (dose: 65.0 mg/kg/injection, schedule: Q07DX Z (sc), vehicle: carboxymethylcellulose (CMC)): 475 % of control
T/C (dose: 108.0 mg/kg/injection, schedule: Q01DX001 (sc), vehicle: carboxymethylcellulose (CMC)): 193 % of control
T/C (dose: 108.0 mg/kg/injection, schedule: Q01DX Z (oral), vehicle: carboxymethylcellulose (CMC)): 122 % of control
T/C (dose: 108.0 mg/kg/injection, schedule: Q07DX Z (sc), vehicle: carboxymethylcellulose (CMC)): 250 % of control
T/C (dose: 180.0 mg/kg/injection, schedule: Q01DX001 (sc), vehicle: carboxymethylcellulose (CMC)): 362 % of control
T/C (dose: 180.0 mg/kg/injection, schedule: Q01DX Z (oral), vehicle: carboxymethylcellulose (CMC)): 116 % of control
T/C (dose: 180.0 mg/kg/injection, schedule: Q07DX Z (sc), vehicle: carboxymethylcellulose (CMC)): 193 % of control
T/C (dose: 300.0 mg/kg/injection, schedule: Q01DX001 (sc), vehicle: carboxymethylcellulose (CMC)): 243 % of control

O=C(Nc1cccnc1)c1ccc([N+](=O)[O-])s1
T/C (dose: 25.0 mg/kg/injection, schedule: Q01DX005 (ip), vehicle: saline): 108 % of control
T/C (dose: 50.0 mg/kg/injection, schedule: Q01DX005 (ip), vehicle: saline): 102 % of control
T/C (dose: 100.0 mg/kg/injection, schedule: Q01DX005 (ip), vehicle: saline): 111 % of control
